Data taken from article PMC8808171, “Nonselective TRPC channel inhibition and suppression of aminoglycoside-induced premature termination codon readthrough by the small molecule AC1903” (The Journal of Biological Chemistry, 2022).
Entries after “also recorded” stand apart in the source; their conditions may differ.

Columns and labels:
A498 cells = assay: Cell viability assay (WST-1), A498 cells, AC1903 alone; format: cell-based; details: 0.1–100 μM, 8 h
Protocol: Cell viability assays were carried out using WST-1 Cell Proliferation Reagent (Merck). A498 cells were plated onto clear 96-well plates at 4000 cells per well and left to adhere for 24 h. Media was then removed, and replaced with fresh media containing 100 nM EA, in presence of either DMSO or 0.1 to 100 μM AC1903. Control wells were treated with vehicle (DMSO) only. To exclude any potential cytotoxic effects of AC1903 itself, cells were incubated with 0.1 to 100 μM AC1903 in absence of EA. Cells were treated in triplicate. Cells were incubated with compounds for 8 h. After 8 h, treatment media was removed and media containing WST-1 reagent (10 μl reagent +100 μl media per well) was added to each well and incubated for 1.5 h at 37 °C. Blank wells contained media and WST-1 reagent (no cells). […] Absorbance was then read at 440 nm and 650 nm (reference wavelength). To analyze data, the value of the 650 nm was subtracted from that of the 440 nm reading. Values across triplicate wells were averaged, and the value from the blank wells subtracted to account for background absorbance. […]
Inhibition of G418-induced premature stop codon readthrough
A498 cytotoxicity . […] Cell viability was calculated as % of control, and the effect of AC1903 was compared to control (0 µM ) (scatter plots showing data from three independent experiments; bars represent mean ± SD; n = 3). […]

TRPC1:C4 (A498) = target: T1, TRPC1:C4 (A498) (Homo sapiens, UniProt P48995+Q9UBN4); assay: [Ca2+]i recordings (Fura-2), endogenous TRPC1:C4 channels in A498 cells; format: cell-based; details: activator EA (100 nM)
T1 construct: endogenous in cells; host or cells: A498
Protocol: HEK T-REx cells expressing tetracycline-inducible TRPC4, TRPC5, TRPC5–C1,TRPC4–C1, and hPiezo1 have been described previously ([46], [57], [59], [78]). Cloning of TRPC3 has been described previously ([79]). To create cells stably expressing tetracycline-inducible TRPC3, HEK T-REx cells were transfected with pcDNA4/TO/hTRPC3 using jetPRIME transfection reagent (VWR) according to manufacturer’s instructions. After 48 h cells were put under antibiotic selection using 400 μg/ml zeocin and 10 μg/ml Blasticidin S (Invivogen)). Medium changes were carried out every 2 to 3 days to remove dead cells. Inducible HEK T-REx cells were cultured in Dulbecco’s modified Eagle medium GlutaMAX (Thermo Fisher Scientific) containing 10% fetal bovine serum (FBS; Merck), penicillin-streptomycin (100 units ml^−1/100 μg ml^−1), with the addition of blasticidin (10 μg ml^1; Invivogen) and zeocin (Invivogen) at either 400 μg ml^−1 (TRPC cell lines) or 200 μg ml^−1 (hPiezo1) to maintain the stable incorporation of the tetracycline repressor and the channel of interest, respectively. Expression of tetracycline-inducible proteins was induced by the addition of tetracycline (TRPC cell lines: 1 μg ml^−1, hPiezo1: 100 ng ml^−1; 24 h) to cell culture medium. […]
For Ca^2+ recording, electrophysiology, and cell viability experiments, data were analyzed using GraphPad Prism 9.0. […]

T1 sequence (Q9UBN4 whole entry): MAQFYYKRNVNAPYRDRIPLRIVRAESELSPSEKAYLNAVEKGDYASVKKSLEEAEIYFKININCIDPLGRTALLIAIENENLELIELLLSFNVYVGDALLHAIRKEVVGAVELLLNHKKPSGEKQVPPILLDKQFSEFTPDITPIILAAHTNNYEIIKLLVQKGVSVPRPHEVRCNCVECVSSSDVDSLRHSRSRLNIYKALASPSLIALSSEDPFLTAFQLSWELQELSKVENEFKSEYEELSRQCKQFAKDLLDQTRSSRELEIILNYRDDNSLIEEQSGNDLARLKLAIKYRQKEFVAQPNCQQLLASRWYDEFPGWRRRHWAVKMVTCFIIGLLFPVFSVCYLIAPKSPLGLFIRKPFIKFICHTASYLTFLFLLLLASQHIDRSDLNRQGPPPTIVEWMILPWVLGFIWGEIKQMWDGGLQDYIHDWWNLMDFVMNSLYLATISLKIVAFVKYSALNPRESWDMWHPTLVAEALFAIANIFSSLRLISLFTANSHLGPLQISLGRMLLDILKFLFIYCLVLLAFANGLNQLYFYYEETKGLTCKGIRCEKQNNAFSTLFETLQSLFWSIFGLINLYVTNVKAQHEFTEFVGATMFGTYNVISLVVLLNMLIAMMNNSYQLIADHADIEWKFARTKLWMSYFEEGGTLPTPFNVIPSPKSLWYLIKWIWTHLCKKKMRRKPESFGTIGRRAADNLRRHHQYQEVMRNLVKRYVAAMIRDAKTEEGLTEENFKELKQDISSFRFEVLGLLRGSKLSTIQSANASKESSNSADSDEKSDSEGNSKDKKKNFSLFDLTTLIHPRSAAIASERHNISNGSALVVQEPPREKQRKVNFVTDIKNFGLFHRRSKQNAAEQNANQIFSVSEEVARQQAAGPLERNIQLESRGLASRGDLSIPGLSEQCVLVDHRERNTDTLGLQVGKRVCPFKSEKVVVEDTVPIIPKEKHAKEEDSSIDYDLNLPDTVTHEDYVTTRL
T1 sequence (P48995 whole entry): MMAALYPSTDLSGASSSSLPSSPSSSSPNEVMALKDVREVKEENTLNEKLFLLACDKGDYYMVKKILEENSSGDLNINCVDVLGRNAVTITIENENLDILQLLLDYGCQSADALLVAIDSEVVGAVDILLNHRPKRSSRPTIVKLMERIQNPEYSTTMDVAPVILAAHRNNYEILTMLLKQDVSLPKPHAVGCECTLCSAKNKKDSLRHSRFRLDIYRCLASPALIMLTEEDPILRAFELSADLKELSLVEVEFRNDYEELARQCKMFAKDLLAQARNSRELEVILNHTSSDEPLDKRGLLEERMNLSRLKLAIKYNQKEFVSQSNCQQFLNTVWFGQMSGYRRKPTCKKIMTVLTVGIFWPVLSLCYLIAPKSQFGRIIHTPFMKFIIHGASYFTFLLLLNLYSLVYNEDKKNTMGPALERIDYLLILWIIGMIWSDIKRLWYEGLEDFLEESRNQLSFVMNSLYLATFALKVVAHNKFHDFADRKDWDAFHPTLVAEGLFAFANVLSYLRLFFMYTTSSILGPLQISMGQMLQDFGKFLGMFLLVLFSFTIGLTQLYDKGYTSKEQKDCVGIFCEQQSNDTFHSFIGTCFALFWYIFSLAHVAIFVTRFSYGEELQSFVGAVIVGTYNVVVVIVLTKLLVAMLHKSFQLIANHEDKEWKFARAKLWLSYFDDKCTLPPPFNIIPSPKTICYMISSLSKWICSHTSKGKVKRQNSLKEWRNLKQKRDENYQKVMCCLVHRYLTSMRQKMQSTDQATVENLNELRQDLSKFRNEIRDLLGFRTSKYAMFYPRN

c1ccc(Cn2c(NCc3ccco3)nc3ccccc32)cc1 [AC1903]
effect on viability of A498 cells (A498 cells): not toxic; also recorded: did not affect viability | Hill slope (TRPC1:C4 (A498); A498): -1.2 | IC50 (TRPC1:C4 (A498); A498 cells): 3.4 µM
